Experimental data published in the supplement of paper PMC8967900.

tested on: ALL-SIL; assay: selective drug sensitivity score (sDSS, relative to normal bone marrow) (sDSS (score)); higher = more potent and effective on the cell line relative to normal bone marrow cells; settings: 72 h
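Also: ALL cell lines in 384-well plates, five doses spanning 10,000-fold, each plate scaled between vehicle and 100 µmol/L benzalkonium chloride controls, sDSS an adapted area-under-curve metric.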

| Compound | selective drug sensitivity score |
| --- | --- |
| COCCNCc1ccc(-c2cc3nccc(Oc4ccc(NC(=S)NC(=O)Cc5ccc(F)cc5)cc4F)c3s2)nc1 [Glesatinib] (top concentration 2500 nM) | 10.4 |
| Cn1nccc1Nc1nccc(-c2ccn([C@H](CO)c3ccc(Cl)c(F)c3)c(=O)c2)n1 [Ravoxertinib] (top concentration 10000 nM) | -3.2 |
| CC1=NN(c2ccc(C(=O)O)cc2)C(=O)C1=Cc1ccc(-c2cc(C)c(C)cc2[N+](=O)[O-])o1 [C646] (top concentration 25000 nM) | 6.14 |
| CC(C)c1cc(C(=O)N2Cc3ccc(CN4CCN(C)CC4)cc3C2)c(O)cc1O [Onalespib] (top concentration 2500 nM) | 4.52 |
| CCN1C(=O)CNc2ncc(-c3ccc(-c4nc[nH]n4)nc3C)nc21 [CC-115] (top concentration 10000 nM) | 1.34 |
| COc1cc(N2CCC(N3CCN(C)CC3)CC2)ccc1Nc1ncc(Cl)c(Nc2ccccc2P(C)(C)=O)n1 [Brigatinib] (top concentration 1000 nM) | -3.34 |
| CN1CCN(c2nc(C3=C(c4c[nH]c5ccccc45)C(=O)NC3=O)c3ccccc3n2)CC1 [Sotrastaurin] (top concentration 10000 nM) | 2.7 |
| CCN(CC)Cc1ccc2cc(COC(=O)Nc3ccc(C(=O)NO)cc3)ccc2c1 [Givinostat] (top concentration 1000 nM) | 8.6 |
| CNC(=O)c1cc(Oc2ccc(NC(=O)Nc3ccc(Cl)c(C(F)(F)F)c3)cc2)ccn1 [Sorafenib] (top concentration 1000 nM) | 0 |
| COc1ccc(S(=O)(=O)Nc2cccnc2Nc2ccc(O)cc2)cc1 [ABT-751] (top concentration 10000 nM) | 17.6 |

tested on: COG-LL-317; assay: as above; settings: 72 h

| Compound | selective drug sensitivity score |
| --- | --- |
| Cc1cc(Nc2ncc(Cl)c(Nc3ccccc3S(=O)(=O)C(C)C)n2)c(OC(C)C)cc1C1CCNCC1 [Ceritinib] (top concentration 2500 nM) | -3.44 |
| Cc1nc(Nc2ncc(C(=O)Nc3c(C)cccc3Cl)s2)cc(N2CCN(CCO)CC2)n1 [Dasatinib] (top concentration 1000 nM) | -0.7 |
| N[C@@H]1CCCN(c2c(/C=C3\SC(=O)NC3=O)cccc2-c2ccccc2)C1 [AZD1208] (top concentration 10000 nM) | -4.4 |
| CC(C)C[C@H](NC(=O)CNC(=O)c1cc(Cl)ccc1Cl)B(O)O [Ixazomib] (top concentration 1000 nM) | 6.26 |
| C=CC(=O)N1CCC[C@@H](n2nc(-c3ccc(Oc4ccccc4)cc3)c3c(N)ncnc32)C1 [Ibrutinib] (top concentration 1000 nM) | 0 |
| Cn1cnc2c(F)c(Nc3ccc(Br)cc3F)c(C(=O)NOCCO)cc21 [Binimetinib] (top concentration 1000 nM) | -2.12 |
| COc1cc(Nc2ncc(F)c(Nc3ccc4c(n3)N(COP(=O)(O)O)C(=O)C(C)(C)O4)n2)cc(OC)c1OC [Fostamatinib] (top concentration 2500 nM) | -2.84 |
| COc1cc2c(Oc3ccc(NC(=O)C4(C(=O)Nc5ccc(F)cc5)CC4)cc3F)ccnc2cc1OCCCN1CCOCC1 [Foretinib] (top concentration 1000 nM) | 0.44 |
| Sc1ncnc2nc[nH]c12 [Mercaptopurine] (top concentration 10000 nM) | 23.7 |
| COCCNCc1ccc(-c2cc3nccc(Oc4ccc(NC(=S)NC(=O)Cc5ccc(F)cc5)cc4F)c3s2)nc1 [Glesatinib] (top concentration 2500 nM) | 0.64 |
| Cn1nccc1Nc1nccc(-c2ccn([C@H](CO)c3ccc(Cl)c(F)c3)c(=O)c2)n1 [Ravoxertinib] (top concentration 10000 nM) | 4.8 |
| CC1=NN(c2ccc(C(=O)O)cc2)C(=O)C1=Cc1ccc(-c2cc(C)c(C)cc2[N+](=O)[O-])o1 [C646] (top concentration 25000 nM) | 1.74 |
| CC(C)c1cc(C(=O)N2Cc3ccc(CN4CCN(C)CC4)cc3C2)c(O)cc1O [Onalespib] (top concentration 2500 nM) | 11.5 |
| CCN1C(=O)CNc2ncc(-c3ccc(-c4nc[nH]n4)nc3C)nc21 [CC-115] (top concentration 10000 nM) | 0.54 |
| COc1cc(N2CCC(N3CCN(C)CC3)CC2)ccc1Nc1ncc(Cl)c(Nc2ccccc2P(C)(C)=O)n1 [Brigatinib] (top concentration 1000 nM) | -2.34 |
| CN1CCN(c2nc(C3=C(c4c[nH]c5ccccc45)C(=O)NC3=O)c3ccccc3n2)CC1 [Sotrastaurin] (top concentration 10000 nM) | 0 |
| CCN(CC)Cc1ccc2cc(COC(=O)Nc3ccc(C(=O)NO)cc3)ccc2c1 [Givinostat] (top concentration 1000 nM) | 4.1 |
| CNC(=O)c1cc(Oc2ccc(NC(=O)Nc3ccc(Cl)c(C(F)(F)F)c3)cc2)ccn1 [Sorafenib] (top concentration 1000 nM) | 0 |
| COc1ccc(S(=O)(=O)Nc2cccnc2Nc2ccc(O)cc2)cc1 [ABT-751] (top concentration 10000 nM) | 11.4 |

tested on: COG-LL-355h; assay: as above; settings: 72 h

| Compound | selective drug sensitivity score |
| --- | --- |
| Cc1cc(Nc2ncc(Cl)c(Nc3ccccc3S(=O)(=O)C(C)C)n2)c(OC(C)C)cc1C1CCNCC1 [Ceritinib] (top concentration 2500 nM) | 2.86 |
| Cc1nc(Nc2ncc(C(=O)Nc3c(C)cccc3Cl)s2)cc(N2CCN(CCO)CC2)n1 [Dasatinib] (top concentration 1000 nM) | -2.8 |
| N[C@@H]1CCCN(c2c(/C=C3\SC(=O)NC3=O)cccc2-c2ccccc2)C1 [AZD1208] (top concentration 10000 nM) | 12.4 |
| CC(C)C[C@H](NC(=O)CNC(=O)c1cc(Cl)ccc1Cl)B(O)O [Ixazomib] (top concentration 1000 nM) | 6.56 |
| C=CC(=O)N1CCC[C@@H](n2nc(-c3ccc(Oc4ccccc4)cc3)c3c(N)ncnc32)C1 [Ibrutinib] (top concentration 1000 nM) | 0 |
| Cn1cnc2c(F)c(Nc3ccc(Br)cc3F)c(C(=O)NOCCO)cc21 [Binimetinib] (top concentration 1000 nM) | 5.58 |
| COc1cc(Nc2ncc(F)c(Nc3ccc4c(n3)N(COP(=O)(O)O)C(=O)C(C)(C)O4)n2)cc(OC)c1OC [Fostamatinib] (top concentration 2500 nM) | 1.96 |
| COc1cc2c(Oc3ccc(NC(=O)C4(C(=O)Nc5ccc(F)cc5)CC4)cc3F)ccnc2cc1OCCCN1CCOCC1 [Foretinib] (top concentration 1000 nM) | 0.34 |
| Sc1ncnc2nc[nH]c12 [Mercaptopurine] (top concentration 10000 nM) | 0.5 |
| COCCNCc1ccc(-c2cc3nccc(Oc4ccc(NC(=S)NC(=O)Cc5ccc(F)cc5)cc4F)c3s2)nc1 [Glesatinib] (top concentration 2500 nM) | 0.54 |
| Cn1nccc1Nc1nccc(-c2ccn([C@H](CO)c3ccc(Cl)c(F)c3)c(=O)c2)n1 [Ravoxertinib] (top concentration 10000 nM) | 7.7 |
| CC1=NN(c2ccc(C(=O)O)cc2)C(=O)C1=Cc1ccc(-c2cc(C)c(C)cc2[N+](=O)[O-])o1 [C646] (top concentration 25000 nM) | 4.44 |
| CC(C)c1cc(C(=O)N2Cc3ccc(CN4CCN(C)CC4)cc3C2)c(O)cc1O [Onalespib] (top concentration 2500 nM) | 3.32 |
| CCN1C(=O)CNc2ncc(-c3ccc(-c4nc[nH]n4)nc3C)nc21 [CC-115] (top concentration 10000 nM) | 1.44 |
| COc1cc(N2CCC(N3CCN(C)CC3)CC2)ccc1Nc1ncc(Cl)c(Nc2ccccc2P(C)(C)=O)n1 [Brigatinib] (top concentration 1000 nM) | 2.86 |
| CN1CCN(c2nc(C3=C(c4c[nH]c5ccccc45)C(=O)NC3=O)c3ccccc3n2)CC1 [Sotrastaurin] (top concentration 10000 nM) | 5.7 |
| CCN(CC)Cc1ccc2cc(COC(=O)Nc3ccc(C(=O)NO)cc3)ccc2c1 [Givinostat] (top concentration 1000 nM) | 5 |
| CNC(=O)c1cc(Oc2ccc(NC(=O)Nc3ccc(Cl)c(C(F)(F)F)c3)cc2)ccn1 [Sorafenib] (top concentration 1000 nM) | 0 |
| COc1ccc(S(=O)(=O)Nc2cccnc2Nc2ccc(O)cc2)cc1 [ABT-751] (top concentration 10000 nM) | 1.02 |
